Test results from patent US6461997B1, “Triazole sulfones having herbicidal activity” (Monsanto Technology LLC, priority 1999, dated 2002).

Assays:
[1] = test system: PANMI (wild proso millet); test: Pre-emergence herbicidal activity, warm season; type: in vivo, Panicum miliaceum; conditions: for Pre-emergence activity (GR80) PANMI: GR80 = lowest tested rate (300, 100, 30, 10 g/ha) with 80% or greater inhibition, approx. 14 days after treating, 30/21° C.
Summary of the method: (§1)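 GR80 values derive from percent inhibition relative to untreated plants, read roughly 14 days after sowing and pre-emergence soil-surface treatment (compound in 50:50 acetone/water; rates typically 10, 30, 100, 300 g/ha). Warm-season weeds grew at 30/21° C day/night, cool-season ones at 18/13° C; an asterisk marks activity without reaching 80% at the highest rate.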

[2] = test system: IPOSS (annual morningglory); test: Pre-plant incorporated (PPI) herbicidal activity, warm season; type: in vivo, Ipomoea spp.; conditions: PPI application
Experimental: (§2) In another set of tests, the pre-plant incorporated (PPI) activity of compounds of this invention was evaluated on the same species as for the pre-emergence tests described above. In the PPI tests the following procedure, designed to simulate PPI application, was used.
(§3) A pre-prepared topsoil mixture (described above) was placed in a pot and compacted to a depth of 1.0 to 1.25 cm from the top of the pot. Seeds of each of several monocotyledonous and dicotyledonous annual plant species were placed on top of the soil. A sufficient quantity of soil to cover the seeds and level fill the pot was weighed into an open container. A known amount of the test compound was dissolved or suspended in an organic solvent and applied by spraying to this cover soil. The cover soil was thoroughly mixed to distribute the test compound throughout the cover soil, and was then applied as a cover layer over the seeds. Untreated soil was used as a cover layer for control pots. After treatment the plants were placed in a greenhouse where they received 0.64 cm of overhead irrigation. All subsequent watering consisted of a light overhead mist and/or subirrigation as needed for germination and growth. Tables 9 and 10 below relate to warm season plant species which were placed after pre-emergence treatment in a greenhouse with a 30/21° C. day/night temperature regime. Tables 11 and 12 below relates to cool season plant species placed after pre-emergence treatment in a greenhouse or growth chamber with an 18/13° C. day/night temperature regime. Only the compounds of Examples 1, 6, 8, 11, 13 and 15-20 were included in PPI tests.
(§4) Approximately 14 days after planting and treating, the plants were observed and herbicidal efficacy recorded as percent inhibition by comparison with untreated plants.

barley (HORVX) = test: Selectivity test, PPI, cool season crop; type: in vivo, Hordeunm vulgare; conditions: PPI application
Experimental: as §3, §4
Additional pre-emergence and PPI tests were conducted by the procedures described above, on warm and cool season weed species in the presence of crop species, to assess herbicidal selectivity. Crop species included in warm season tests were corn (Zea mays, ZEAMX), rice (Oryza sativa, ORYSA) and soybean (Glycine max, GLYMX). Crop species included in cool season tests were wheat (Triticum aestivum, TRZAW), barley (Hordeunm vulgare, HORVX) and oilseed rape (Brassica napus, BRSNS).
Tables 15 and 16 relate to pre-emergence and PPI tests respectively on warm season species. Table 17 relates to pre-emergence tests on cool season species.

KCHSC (kochia) = test: Pre-plant incorporated (PPI) herbicidal activity, cool season; type: in vivo, Kochia scoparia; conditions: for PPI activity GR80, KCHSC: pre-plant incorporated, lowest tested rate with 80% or greater inhibition, about 14 days
Experimental: as §2, §3, §4

BROTE (downy brome) = test: Pre-emergence herbicidal activity, cool season; type: in vivo, Bromus tectorum; conditions: GR80 = lowest tested rate (300, 100, 30, 10 g/ha) with 80% or greater inhibition; approx. 14 days after treating; 18/13° C.
Summary of the method: as §1

ABUTH (velvetleaf) = test: Pre-emergence herbicidal activity, warm season; type: in vivo, Abutilon theophrasti; conditions: for Pre-emergence activity (GR80) ABUTH: GR80 = lowest tested rate (300, 100, 30, 10 g/ha) with 80% or greater inhibition, approx. 14 days after treating, 30/21° C.
Summary of the method: as §1

LOLMG (annual ryegrass) = test: Pre-emergence herbicidal activity, cool season; type: in vivo, Lolium multiflorum; conditions: GR80 = lowest tested rate (300, 100, 30, 10 g/ha) with 80% or greater inhibition; approx. 14 days after treating; 18/13° C.
Summary of the method: as §1

[3] = test system: AGRRE (quackgrass (seedling)); test: Pre-emergence herbicidal activity, cool season; type: in vivo, Elymus repens; conditions: GR80 = lowest tested rate (300, 100, 30, 10 g/ha) with 80% or greater inhibition; approx. 14 days after treating; 18/13° C.
Summary of the method: as §1

AVEFA (wild oat) = test: Pre-emergence herbicidal activity, cool season; type: in vivo, Avena fatua; conditions: GR80 = lowest tested rate (300, 100, 30, 10 g/ha) with 80% or greater inhibition; approx. 14 days after treating; 18/13° C.
Summary of the method: as §1

[4] = test system: CIRAR (canada thistle (seedling)); test: Pre-plant incorporated (PPI) herbicidal activity, warm season; type: in vivo, Cirsium arvense; conditions: GR80 = lowest tested rate with 80% or greater inhibition, approx. 14 days after treating, 30/21° C.
Experimental: as §2, §3, §4

DATST (jimsonweed) = test: Pre-emergence herbicidal activity, warm season; type: in vivo, Datura stramonium; conditions: for Pre-emergence activity (GR80) DATST: GR80 = lowest tested rate (300, 100, 30, 10 g/ha) with 80% or greater inhibition, approx. 14 days after treating, 30/21° C.
Summary of the method: as §1

POROL (common purslane) = test: Pre-plant incorporated (PPI) herbicidal activity, warm season; type: in vivo, Portulaca oleracea; conditions: GR80 = lowest tested rate with 80% or greater inhibition, approx. 14 days after treating, 30/21° C.
Experimental: as §2, §3, §4

CONAR (field bindweed) = test: as above; type: in vivo, Convolvulus arvensis; conditions: GR80 = lowest tested rate with 80% or greater inhibition, approx. 14 days after treating, 30/21° C.
Experimental: as §2, §3, §4

Compound | Pre-emergence activity (GR80) PANMI [1] [g/ha] | Percent inhibition IPOSS ([2]; 10 g/ha) [%] | Percent inhibition IPOSS ([2]; 30 g/ha) [%] | Percent inhibition IPOSS ([2]; 100 g/ha) [%] | Percent inhibition IPOSS ([2]; 300 g/ha) [%] | Percent inhibition IPOSS ([2]; 900 g/ha) [%] | Percent inhibition HORVX (barley (HORVX); 10 g/ha) [%] | Percent inhibition HORVX (barley (HORVX); 30 g/ha) [%] | Percent inhibition HORVX (barley (HORVX); 100 g/ha) [%] | Percent inhibition HORVX (barley (HORVX); 300 g/ha) [%] | Percent inhibition HORVX (barley (HORVX); 900 g/ha) [%] | Pre-emergence activity (GR80) BROTE (BROTE (downy brome)) [g/ha] | Pre-emergence activity (GR80) ABUTH (ABUTH (velvetleaf)) | Pre-emergence activity (GR80) AVEFA (AVEFA (wild oat)) | PPI activity (GR80) CIRAR [4] [g/ha] | Pre-emergence activity (GR80) DATST (DATST (jimsonweed)) [g/ha] | PPI activity (GR80) POROL (POROL (common purslane)) [g/ha] | PPI activity (GR80) CONAR (CONAR (field bindweed)) | PPI activity GR80, KCHSC (KCHSC (kochia)) | further results
CCN(CC)C(=O)n1cnc(S(=O)(=O)C(F)(F)SCc2ccccc2)n1 [Example 10] | 300 | 0 | 0 | 0 | 0 | 50 | 0 | 0 | 0 | 0 | 20 | – | – | – | – | – | – | – | – | –
C=C(C)CC(F)(F)S(=O)(=O)c1ncn(C(=O)N(CC)CC)n1 [Example 18] | 30 | – | – | – | – | – | – | – | – | – | – | 300 | * (activity observed, at least at highest rate, but <80% inhibition) | * (activity observed, at least at highest rate, but <80% inhibition) | 30 | 300 | 100 | 100 g/ha | – | inhibition at 10 g/ha (KCHSC (kochia); Bassia scoparia, weed, PPI application, 10 g/ha, read-out: Percent inhibition KCHSC): 40%; inhibition at 30 g/ha (KCHSC (kochia); Bassia scoparia, weed, PPI application, 30 g/ha, read-out: Percent inhibition KCHSC): 80%; inhibition at 100 g/ha (KCHSC (kochia); Bassia scoparia, weed, PPI application, 100 g/ha, read-out: Percent inhibition KCHSC): 80%; inhibition at 300 g/ha (KCHSC (kochia); Bassia scoparia, weed, PPI application, 300 g/ha, read-out: Percent inhibition KCHSC): 100%; inhibition at 900 g/ha (KCHSC (kochia); Bassia scoparia, weed, PPI application, 900 g/ha, read-out: Percent inhibition KCHSC): 100%; Pre-emergence activity (GR80) LOLMG (LOLMG (annual ryegrass)): 300 g/ha; Pre-emergence activity (GR80) AGRRE [3]: 300 g/ha; inhibition at 10 g/ha (barley (HORVX); Hordeum vulgare, 10 g/ha, read-out: Percent inhibition HORVX): 0%; inhibition at 30 g/ha (barley (HORVX); Hordeum vulgare, 30 g/ha, read-out: Percent inhibition HORVX): 0%; inhibition at 100 g/ha (barley (HORVX); Hordeum vulgare, 100 g/ha, read-out: Percent inhibition HORVX): 0%; inhibition at 300 g/ha (barley (HORVX); Hordeum vulgare, 300 g/ha, read-out: Percent inhibition HORVX): 10%; inhibition at 900 g/ha (barley (HORVX); Hordeum vulgare, 900 g/ha, read-out: Percent inhibition HORVX): 60%
CCN(CC)C(=O)n1cnc(S(=O)(=O)C(F)(F)SCCOC)n1 [Example 13] | 300 | 0 | 0 | 0 | 10 | 100 | 0 | 0 | 20 | 10 | 40 | 300 | 300 g/ha | 300 g/ha | 100 | – | 100 | * (activity observed, at least at highest rate, but <80% inhibition) | * (activity observed, at least at highest rate, but <80% inhibition) | –
CCN(CC)C(=O)n1cnc(S(=O)(=O)C(F)F)n1 [Example 15, 1-(N,N-diethylcarbamoyl)-3-(difluoromethylsulfonyl)-1,2,4-triazole] | 30 | – | – | – | – | – | – | – | – | – | – | – | 300 g/ha | – | 100 | 300 | 100 | * (activity observed, at least at highest rate, but <80% inhibition) | 100 g/ha | inhibition at 10 g/ha (ABUTH (velvetleaf); Abutilon theophrasti, pre-emergence application, 10 g/ha, read-out: Percent inhibition, weed ABUTH): 0%; inhibition at 30 g/ha (ABUTH (velvetleaf); Abutilon theophrasti, pre-emergence application, 30 g/ha, read-out: Percent inhibition, weed ABUTH): 0%; inhibition at 100 g/ha (ABUTH (velvetleaf); Abutilon theophrasti, pre-emergence application, 100 g/ha, read-out: Percent inhibition, weed ABUTH): 0%; inhibition at 300 g/ha (ABUTH (velvetleaf); Abutilon theophrasti, pre-emergence application, 300 g/ha, read-out: Percent inhibition, weed ABUTH): 0%; inhibition at 900 g/ha (ABUTH (velvetleaf); Abutilon theophrasti, pre-emergence application, 900 g/ha, read-out: Percent inhibition, weed ABUTH): 0%; inhibition at 10 g/ha ([1]; Panicum miliaceum, pre-emergence application, 10 g/ha, read-out: Percent inhibition, weed PANMI): 0%; inhibition at 30 g/ha ([1]; Panicum miliaceum, pre-emergence application, 30 g/ha, read-out: Percent inhibition, weed PANMI): 0%; inhibition at 100 g/ha ([1]; Panicum miliaceum, pre-emergence application, 100 g/ha, read-out: Percent inhibition, weed PANMI): 20%; inhibition at 300 g/ha ([1]; Panicum miliaceum, pre-emergence application, 300 g/ha, read-out: Percent inhibition, weed PANMI): 40%; inhibition at 900 g/ha ([1]; Panicum miliaceum, pre-emergence application, 900 g/ha, read-out: Percent inhibition, weed PANMI): 99%; inhibition at 30 g/ha ([2]; Ipomoea, 30 g/ha, read-out: Percent inhibition IPOSS): 0%; inhibition at 300 g/ha ([2]; Ipomoea, 300 g/ha, read-out: Percent inhibition IPOSS): 20%; inhibition at 900 g/ha ([2]; Ipomoea, 900 g/ha, read-out: Percent inhibition IPOSS): 20%; inhibition at 10 g/ha (DATST (jimsonweed); Datura stramonium, pre-emergence application, 10 g/ha, read-out: Percent inhibition, weed DATST): 0%; inhibition at 30 g/ha (DATST (jimsonweed); Datura stramonium, pre-emergence application, 30 g/ha, read-out: Percent inhibition, weed DATST): 0%; inhibition at 100 g/ha (DATST (jimsonweed); Datura stramonium, pre-emergence application, 100 g/ha, read-out: Percent inhibition, weed DATST): 0%; inhibition at 300 g/ha (DATST (jimsonweed); Datura stramonium, pre-emergence application, 300 g/ha, read-out: Percent inhibition, weed DATST): 0%
